# Values quoted from earlier work, collected in patent publication US20060246505A1, “Modulation of the synthesis of insulin” (priority 2003, published 2006).
# Tested on: signalling pathways that trigger transcription
# Conditions: glucose-triggered resynthesis of insulin in beta cells; prior-art statement
structure (smiles),measurement,value
C[S+]([O-])c1ccc(-c2nc(-c3ccncc3)c(-c3ccc(F)cc3)[nH]2)cc1 (stereo not shown) [SB 203580],inhibition of the signalling pathways that trigger transcription (resynthesis of insulin),can be inhibited
